Here are results for 6 molecules from patent publication US20020115623A1, “Saponin derivatives useful for inhibiting sialyltransferase and biosynthesis of sialoglycoconjugate” (Shui-Tein Chen, priority 2000, published 2002).

The target of one experiment is T1, α2,6-sialyltransferase (Gallus gallus, UniProt Q92183).
T1 construct: made in house
Briefly: Assay of α2,6-sialyltransferase activity. It is filed as biochemical. Particulars: concentration of inhibitor in assay 20 μM. How it is done:
(§1) α2,3-Sialyltransferases were prepared by the procedures as described by Tsuji et al, Eur J Biochem., 1993, 216(2), 377-85. The suspension of enzyme-bound beads in 250 mM sodium cacodylate buffer (pH 6.4), 25 mM MgCl2, 5 mM CaCl2 was mixed with a Vortex mixer. Then, 4 μl of the enzyme suspension (1×10^−6 Units) was pipetted using a Gilson P-20 pipetter immediately after mixing. The enzyme was then premixed with 4 μl of inhibitors (75 μM) or water (as control) at 25° C. for 5 min. Then, the substrates, 1 μl of CMP-[14C]NeuAc (40 nCi/μl) and 1 μl of Galα1,3GalNAc-Obzl (0.1 mM), were added to the pre-incubated enzyme-inhibitor mixture and incubated at 37° C. for 3 h. The final concentrations of sodium cacodylate, MgCl2, CaCl2, and Galα1,3GalNAc-OBzl in the reaction mixture were 100 mM, 10 mM, 2 mM, and […], respectively. The solution was placed in the ice to stop the reaction. The resulting reaction products were immediately analyzed by silica gel 60 HPTLC plate (Merck, Germany) with a solvent system of ethanol/pyridine/n-butanol/acetate/water (100:10:10:3:30). The radioactivity of the corresponding product and total radioactivity were detected and quantified with a BAS 1500 radio-image analyzer (Fuji Film, Japan).
α2,6-Sialyltransferases were prepared by the procedures as described by Tsuji et al, J Biol Chem., 1994, 269(2), 1402-9. The assay procedures for α2,6-Sialyltransferases were the same as those for α2,3-Sialyltransferases, except that 1 μl of Galα1,3GalNAc-Obzl (0.1 mM) was replaced by 1 μl of fetuin (1 μg/μl).

For the next experiment, the target named is T2, α2,3-sialyltransferase (Mus musculus, UniProt P54751).
T2 construct: made in house
T2 sequence (P54751 1-337): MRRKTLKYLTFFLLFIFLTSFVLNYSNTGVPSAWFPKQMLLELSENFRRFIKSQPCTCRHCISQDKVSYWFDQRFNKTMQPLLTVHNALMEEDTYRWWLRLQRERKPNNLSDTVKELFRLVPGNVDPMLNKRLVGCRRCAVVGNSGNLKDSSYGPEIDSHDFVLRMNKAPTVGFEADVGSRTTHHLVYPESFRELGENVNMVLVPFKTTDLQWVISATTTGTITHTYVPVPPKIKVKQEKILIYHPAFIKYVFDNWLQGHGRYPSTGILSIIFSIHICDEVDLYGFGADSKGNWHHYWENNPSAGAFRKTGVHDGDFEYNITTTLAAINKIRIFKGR
Briefly: Assay of α2,3-sialyltransferase activity. It is filed as biochemical. The note with it: for Percentage of inhibition (%): concentration of inhibitor in assay 30 μM. How it is done:
as §1

For experiment [1], the system named is human breast cancer MCF7 cells. Put plainly: Growth inhibition of MCF7 cells. The class given is cell-based. The note with it: FIG. 2. On the procedure:
(§2) Human breast cancer cell MCF7 and hepatoma cell HepG2 were incubated in 5% CO2 incubator at 37° C. with the MEM (Eagle) medium with Earle's Bss supplemented with 2 mM glutamine, 1.5 g/l sodium bicarbonate, 0.1 mM non-essential amino acids, 1.0 mM sodium pyruvate, 100 units/ml penicillin, 100 μg/ml streptomycin and 2.5 μg/ml amphotericin B and with 10% fetal bovine serum. The cells were transferred weekly to 0.025% trypsin in 0.53 mM EDTA in Ca^2+Mg^2+-free PBS. The cells were incubated in the culture medium with 2.5% fetal bovine serum in the presence of a different concentration (5, 25, 50 and 100 μM, respectively) of the inhibitor in a 5% CO2 incubator at 37° C. for three days.

Experiment [2] deals with human hepatoma HepG2 cells. Briefly: Growth inhibition of HepG2 cells. It is filed as cell-based. Particulars: FIG. 3. On the procedure: as §2
The test system of experiment [3] is cell surface α2,3-sialoglycoconjugates on MCF7. Put plainly: Flow cytometry (FITC-MAA) of inhibitor-treated MCF7 cells. The class given is cell-based, human. The note with it: for Cell surface α2,3-sialoglycoconjugates (%) on MCF7: three days, FITC-MAA stain, control 100. On the procedure: (§3) Human breast cancer cell MCF7 and hepatoma cell HepG2 were incubated in 5% CO2 incubator at 37° C. with the MEM (Eagle) medium with Earle's Bss supplemented with 2 mM glutamine, 1.5 g/l sodium bicarbonate, 0.1 mM non-essential amino acids, 1.0 mM sodium pyruvate, 100 units/ml penicillin, 100 μg/ml streptomycin and 2.5 μg/ml amphotericin B and with 10% fetal bovine serum. The cells were transferred weekly to 0.025% trypsin in 0.53 mM EDTA in Ca^2+Mg^2+-free PBS.
(§4) The cells were incubated in the culture medium with 2.5% fetal bovine serum in the presence of a different concentration (5, 25, 50 and 100 μM, respectively) of the inhibitor in a 5% CO2 incubator at 37° C. for three days.
(§5) Fluorescein isothiocyanate labeled Maackia amurensis agglutinin (MAA) and Sambucus nigra agglutinin (SNA), which recognize the oligosaccharide species NeuAcα2,3-Gal-R and NeuAcα2,6-R, respectively, were purchased from Vector Labs Inc. (Burlingame, Calif.). Cells (control and inhibitor-treated). The cells scraped from dishes with a rubber policeman were washed with PBS and stained with fluorescein isothiocyanate labeled MAA and SNA, respectively, in binding buffer (10 mM HEPES, 0.15 M NaCl, pH 7.5) at 4° C. for 1 h. After centrifugation, cells were washed three times with PBS and fixed with 1% paraformaldehyde. The fluorescence intensity was measured with a FACScan flow cytometry (Becton Dickinson, Mountain View, Calif.).
For orientation: A flow cytometer gives signals particle by particle.

Experiment [4] has as its system cell surface α2,6-sialoglycoconjugates on HepG2. Put plainly: Flow cytometry (FITC-SNA) of inhibitor-treated HepG2 cells. The class given is cell-based, human. Particulars: for Cell surface α2,6-sialoglycoconjugates (%) on HepG2: three days, FITC-SNA stain, control 100. On the procedure:
as §3, §4, §5

In the next experiment the test system is β-galactosidase. Put plainly: β-Galactosidase assay. The class given is biochemical. Details: Relative Activity (%): dose or concentration left out as unconfirmed. How it is done: […] The resulting solution was incubated at 37° C. for 30 min. The resulting products were detected through the same procedures as those for sialidase assay.
In another experiment the test system is fucosyltransferase. Briefly: Fucosyltransferase assay. The class given is biochemical. Particulars: FIG. 1. How it is done: The fucosyltransferase (1 mU/10 μl, Calbiochem) in 100 mM Tris-HCl buffer (pH 7.5) and 40 mM MnCl2 was mixed with 4 μl inhibitor or water, 4 μl N-acetylglucosamine (1 mM) and 2 μl GDP-[^14C]fucose (20 nCi). The resulting solution was incubated at 37° C. for one hour. The reaction products were detected through the same procedures as those for sialyltransferase assay.

In another experiment the test system is sialidase. Briefly: Sialidase assay. The class given is biochemical. Also on record: Relative Activity (%): dose or concentration left out as unconfirmed. On the procedure: The sialidase (10 mU/90 μl, sigma) in 500 mM sodium phosphate buffer (pH 4.5) was mixed with 10 μl inhibitor (5 mM) or water, 100 μl 4-methylumbelliferyl-[…]-acetylneuraminic acid (0.2 mM, sigma). The resulting solution was incubated at 37° C. for 30 min. The solution was added 1 ml quenching buffer (0.133 M glycine-NaOH, pH 10.7, 60 mM NaCl and 41.5 mM Na2CO3) to stop the reaction. The fluorescence intensity of the resulting solution was measured by fluorescence spectrophotometer at 360 nm excitation and at 440 nm emission.

The test system of a further experiment is α-mannosidase. Put plainly: α-Mannosidase assay. The class given is biochemical. Details: Relative Activity (%): dose or concentration left out as unconfirmed. On the procedure: The α-mannosidase (10 mU/90 μl, Sigma) in 500 mM sodium phosphate buffer (pH 4.5) was mixed with 10 μl inhibitor (5 mM) or water, 100 μl 4-methylumbelliferyl-[…]-mannopyranoside (0.2 mM). The resulting solution was incubated at 37° C. for 30 min. The resulting products were detected through the same procedures as those for sialidase assay.

T1 sequence (Q92183 whole entry): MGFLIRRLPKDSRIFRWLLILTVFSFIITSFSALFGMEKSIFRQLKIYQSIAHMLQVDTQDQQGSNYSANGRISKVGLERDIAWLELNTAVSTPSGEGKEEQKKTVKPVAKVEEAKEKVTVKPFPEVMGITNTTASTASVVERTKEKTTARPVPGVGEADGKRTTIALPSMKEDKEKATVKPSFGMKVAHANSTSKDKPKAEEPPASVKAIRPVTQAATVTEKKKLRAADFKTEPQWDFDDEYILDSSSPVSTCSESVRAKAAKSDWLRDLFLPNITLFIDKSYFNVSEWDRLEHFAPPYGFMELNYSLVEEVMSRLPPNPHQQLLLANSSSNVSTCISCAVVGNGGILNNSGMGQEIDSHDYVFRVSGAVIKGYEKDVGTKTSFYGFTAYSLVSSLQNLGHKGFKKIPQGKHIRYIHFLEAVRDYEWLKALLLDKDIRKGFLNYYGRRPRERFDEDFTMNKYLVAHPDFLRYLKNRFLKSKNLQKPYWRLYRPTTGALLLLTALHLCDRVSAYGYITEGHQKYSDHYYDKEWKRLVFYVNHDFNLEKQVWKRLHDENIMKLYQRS

As to `CC1OC(OC2C(OC3C(OC4CCC5(C)C(CCC6(C)C5CC=C5C7CC(C)(C)CC(O)C7(C)CCC56C)C4(C)C)OC(C(=O)O)C(O)C3O)OC(CO)C(O)C2O)C(O)C(O)C1O` (centres unmarked) [kaikasaponin III], the “Percentage of inhibition (%)” value at α2,6-sialyltransferase was found to be 83.2%; on α2,3-sialyltransferase it was 95.5%.
Take `CC1(C)C[C@@H](O)[C@]2(C)CC[C@]3(C)C(=CC[C@@H]4[C@@]5(C)CC[C@H](O[C@@H]6O[C@H](C(=O)O)[C@@H](O)[C@H](O)[C@H]6O[C@@H]6O[C@H](CO)[C@H](O)[C@H](O)[C@H]6O)[C@](C)(CO)[C@@H]5CC[C@]43C)[C@@H]2C1` [soyasaponin III]: the “Percentage of inhibition (%)” value on α2,6-sialyltransferase amounted to 23.1%; at α2,3-sialyltransferase, 61.5%.
For the molecule `C[C@@H]1O[C@@H](O[C@H]2[C@H](O[C@H]3[C@H](O[C@H]4CC[C@@]5(C)[C@@H](CC[C@]6(C)[C@@H]5CC=C5[C@@H]7CC(C)(C)C[C@@H](O)[C@]7(C)CC[C@]56C)[C@@]4(C)CO)O[C@H](C(=O)O)[C@@H](O)[C@@H]3O)OC[C@H](O)[C@@H]2O)[C@H](O)[C@H](O)[C@H]1O` [soyasaponin II], the “Percentage of inhibition (%)” value is reported as 64.4% on α2,6-sialyltransferase and 93.3% at α2,3-sialyltransferase.
With `C[C@@H]1O[C@@H](O[C@H]2[C@H](O[C@H]3[C@H](O[C@H]4CC[C@@]5(C)[C@@H](CC[C@]6(C)[C@@H]5CC=C5[C@@H]7CC(C)(C)C[C@@H](O)[C@]7(C)CC[C@]56C)[C@@]4(C)CO)O[C@H](C(=O)O)[C@@H](O)[C@@H]3O)O[C@H](CO)[C@H](O)[C@@H]2O)[C@H](O)[C@H](O)[C@H]1O` [soyasaponin I], the “growth of human breast cancer MCF7 cells (in words)” value in experiment [1] was “inhibited the growth”. For the same molecule, in experiment [2], the “growth of human hepatoma HepG2 cells (in words)” value is given as “inhibited the growth”. Further, the “Percentage of inhibition (%)” value on α2,6-sialyltransferase was found to be 76.9%; at α2,3-sialyltransferase, 89.9%. The “Cell surface α2,3-sialoglycoconjugates (%) on MCF7” value in experiment [3] (5 μM) was determined as 99.5%; in experiment [3] (25 μM) it was 68.0%; in experiment [3] (50 μM), 56.8%; in experiment [3] (100 μM), 19.8%. Also, the “decrease of the α2,3-sialoglyconjugates of MCF7 cells” value in [3] (100 μM) was “about 80%”. On α2,3-sialyltransferase (FIG. 1, sialyltransferases, type not specified), the “inhibition of sialyltransferases (in words)” value is “specifically inhibited”. Besides, the “Cell surface α2,6-sialoglycoconjugates (%) on HepG2” value in experiment [4] (5 μM) was 96.5%; in experiment [4] (25 μM), 85.1%; in experiment [4] (50 μM), 76.4%; in experiment [4] (100 μM) it was 41.4%. Also, in experiment [4] (100 μM), the “decrease of cell surface α2,6-sialoglyconjugates of HepG2 cells” value is on record as “about 60%”. Further, in the experiment with β-galactosidase (Table 3), the “inhibition of galactosidase (in words)” value is recorded as “did not inhibit”. Also, the “Relative Activity (%)” value was 112.0% in the experiment on β-galactosidase (soyasaponin I, control 100); 142.0% with sialidase (soyasaponin I, control 100); 99.4% in the experiment with α-mannosidase (soyasaponin I, control 100). Moreover, the “inhibition of fucosyltransferase (in words)” value in the experiment with fucosyltransferase is listed as “not for fucosyltransferase”. Besides, in the experiment on sialidase (Table 3), the “inhibition of sialidase (in words)” value is “did not inhibit”. Besides, the “inhibition of mannosidase (in words)” value in the experiment with α-mannosidase (Table 3) is “did not inhibit”.
As for `CC1(C)CC(O)C2(C)CCC3(C)C(=CCC4C5(C)CCC(OC6OC(C(=O)O)C(O)C(O)C6OC6OC(CO)C(O)C(O)C6OC6OC(CO)C(O)C(O)C6O)C(C)(CO)C5CCC43C)C2C1` (centres unmarked) [soyasaponin V], the “Percentage of inhibition (%)” value came to 32.9% on α2,6-sialyltransferase and 79.6% at α2,3-sialyltransferase.
For soyasaponin I-Me, the “Percentage of inhibition (%)” value is 32.2% at α2,6-sialyltransferase and 63.8% at α2,3-sialyltransferase.
